Patent publication US20070049564A1 (Wyeth, priority 2005, published 2007)
In brackets after ≈: the same amount, converted by molar mass. Read-outs that look alike come from different tables or passages of the source.

Key:
Assay in all cases: MIC, broth microdilution
E. coli GC 2271 = conditions: Escherichia coli
S. aureus GC 1079 = conditions: Staphylococcus aureus
E. coli GC 2235 = conditions: Escherichia coli
S. aureus GC 6466 = conditions: Staphylococcus aureus
E. coli GC 4560 = conditions: Escherichia coli
E. coli GC 2270 = conditions: Escherichia coli
Description: (§1) Antimicrobial susceptibility testing. The in vitro activities of the antibiotics are determined by the broth microdilution method as recommended by the National Committee for Clinical Laboratory Standards (NCCLS) (1). Mueller-Hinton II broth (MHBII)(BBL Cockeysville, Md.) is the medium employed in the testing procedures. Microtiter plates containing serial dilutions of each antimicrobial agent are inoculated with each organism to yield the appropriate density (10^5 CFU/ml) in a 100 μl final volume. The plates are incubated for 18-22 hours at 35° C. in ambient air.
(§2) Representative compounds were first incubated in mouse serum for an hour prior to the in vitro testing against a panel of selected gram-positive and gram-negative bacteria strains. All compounds were also pre-incubated in water for an hour prior to testing as control. Representative compounds of Formula I were incubated in human serum prior to MIC determination.

E. faecium GC 4556 = conditions: Enterococcus faecium
Description: as §1, §2

S. agalactiae GC 4564 = conditions: Streptococcus agalactiae
E. coli GC 2233 = conditions: Escherichia coli
E. coli GC 6465 = conditions: Escherichia coli
E. coli GC 3226 = conditions: Escherichia coli
E. coli GC 1073 = conditions: Escherichia coli
S. aureus GC 6469 = conditions: Staphylococcus aureus
S. aureus GC 6335 = conditions: Staphylococcus aureus
S. pyogenes GC 4563 = conditions: Streptococcus pyogenes
Description: Antimicrobial susceptibility testing. The in vitro activities of the antibiotics are determined by the broth microdilution method as recommended by the National Committee for Clinical Laboratory Standards (NCCLS) (1). Mueller-Hinton II broth (MHBII)(BBL Cockeysville, Md.) is the medium employed in the testing procedures. Microtiter plates containing serial dilutions of each antimicrobial agent are inoculated with each organism to yield the appropriate density (10^5 CFU/ml) in a 100 μl final volume. The plates are incubated for 18-22 hours at 35° C. in ambient air. […] Standard Pharmacological Test Procedures
Presented in Tables I-XIII are representative compounds of Formula I which were evaluated against a panel of 40 selected gram-positive and gram-negative bacteria strains by pre-incubation in water, mouse serum or human serum. Representative compounds were first incubated in mouse serum for an hour prior to the in vitro testing against a panel of selected gram-positive and gram-negative bacteria strains. All compounds were also pre-incubated in water for an hour prior to testing as control. Representative compounds of Formula I were incubated in human serum prior to MIC determination.

S. aureus GC 6467 = conditions: Staphylococcus aureus
E. coli GC 4559 = conditions: Escherichia coli
E. coli GC 2203 = conditions: Escherichia coli
E. coli GC 2234 = conditions: Escherichia coli
S. typhimurium GC 2172 = conditions: Salmonella enterica, TYPHIMURIUM
Description: as §1
Representative compounds were first incubated in mouse serum for an hour prior to the in vitro testing against a panel of selected gram-positive and gram-negative bacteria strains. All compounds were also pre-incubated in water for an hour prior to testing as control.

Structure (SMILES): CCCCOC(=O)N(CC(=O)Nc1cc(N(C)C)c2c(c1O)C(=O)C1=C(O)[C@]3(O)C(=O)C(C(N)=O)=C(O)[C@@H](N(C)C)[C@@H]3C[C@@H]1C2)C(C)(C)C [Example 58, butyl 2-{[(5aR,6aS,7S,10aS)-9-(aminocarbonyl)-4,7-bis(dimethylamino)-1,8,10a,11-tetrahydroxy-10,12-dioxo-5,5a,6,6a,7,10,10a,12-octahydrotetracen-2-yl]amino}-2-oxoethyl(tert-butyl)carbamate]
- MIC (E. coli GC 2271; GC2271, read-out: MINIMAL INHIBITORY CONCENTRATION MIC, Human Serum): > 64 µg/mL
- MIC (E. coli GC 2271; GC2271, read-out: MINIMAL INHIBITORY CONCENTRATION MIC, Mouse Serum): > 64 µg/mL
- MIC (E. coli GC 2271; GC2271, read-out: MINIMAL INHIBITORY CONCENTRATION MIC, Water): > 64 µg/mL
- MIC (S. aureus GC 1079; GC1079, read-out: MINIMAL INHIBITORY CONCENTRATION MIC, Human Serum): 4 µg/mL (≈ 5.83 µM)
- MIC (S. aureus GC 1079; GC1079, read-out: MINIMAL INHIBITORY CONCENTRATION MIC, Mouse Serum): 2 µg/mL (≈ 2.92 µM)
- MIC (S. aureus GC 1079; GC1079, read-out: MINIMAL INHIBITORY CONCENTRATION MIC, Water): 8 µg/mL (≈ 11.7 µM)
- MIC (E. coli GC 2235; GC2235, read-out: MINIMAL INHIBITORY CONCENTRATION MIC, Human Serum): > 64 µg/mL
- MIC (E. coli GC 2235; GC2235, read-out: MINIMAL INHIBITORY CONCENTRATION MIC, Mouse Serum): > 64 µg/mL
- MIC (E. coli GC 2235; GC2235, read-out: MINIMAL INHIBITORY CONCENTRATION MIC, Water): > 64 µg/mL
- MIC (S. aureus GC 6466; GC6466, read-out: MINIMAL INHIBITORY CONCENTRATION MIC, Human Serum): 4 µg/mL (≈ 5.83 µM)
- MIC (S. aureus GC 6466; GC6466, read-out: MINIMAL INHIBITORY CONCENTRATION MIC, Mouse Serum): 2 µg/mL (≈ 2.92 µM)
- MIC (S. aureus GC 6466; GC6466, read-out: MINIMAL INHIBITORY CONCENTRATION MIC, Water): 4 µg/mL (≈ 5.83 µM)
- MIC (E. coli GC 4560; GC4560, read-out: MINIMAL INHIBITORY CONCENTRATION MIC, Human Serum): 4 µg/mL (≈ 5.83 µM)
- MIC (E. coli GC 4560; GC4560, read-out: MINIMAL INHIBITORY CONCENTRATION MIC, Mouse Serum): 4 µg/mL (≈ 5.83 µM)
- MIC (E. coli GC 4560; GC4560, read-out: MINIMAL INHIBITORY CONCENTRATION MIC, Water): 4 µg/mL (≈ 5.83 µM)
- MIC (E. coli GC 2270; GC2270, read-out: MINIMAL INHIBITORY CONCENTRATION MIC, Human Serum): > 64 µg/mL
- MIC (E. coli GC 2270; GC2270, read-out: MINIMAL INHIBITORY CONCENTRATION MIC, Mouse Serum): > 64 µg/mL
- MIC (E. coli GC 2270; GC2270, read-out: MINIMAL INHIBITORY CONCENTRATION MIC, Water): > 64 µg/mL
- MIC (E. faecium GC 4556; GC4556, read-out: MINIMAL INHIBITORY CONCENTRATION MIC, Human Serum): 4 µg/mL (≈ 5.83 µM)
- MIC (E. faecium GC 4556; GC4556, read-out: MINIMAL INHIBITORY CONCENTRATION MIC, Mouse Serum): 2 µg/mL (≈ 2.92 µM)
- MIC (E. faecium GC 4556; GC4556, read-out: MINIMAL INHIBITORY CONCENTRATION MIC, Water): 4 µg/mL (≈ 5.83 µM)
- MIC (S. agalactiae GC 4564; GC4564, read-out: MINIMAL INHIBITORY CONCENTRATION MIC, Human Serum): 16 µg/mL (≈ 23.3 µM)
- MIC (S. agalactiae GC 4564; GC4564, read-out: MINIMAL INHIBITORY CONCENTRATION MIC, Mouse Serum): 8 µg/mL (≈ 11.7 µM)
- MIC (S. agalactiae GC 4564; GC4564, read-out: MINIMAL INHIBITORY CONCENTRATION MIC, Water): 8 µg/mL (≈ 11.7 µM)
- MIC (E. coli GC 2233; GC2233, read-out: MINIMAL INHIBITORY CONCENTRATION MIC, Human Serum): > 64 µg/mL
- MIC (E. coli GC 2233; GC2233, read-out: MINIMAL INHIBITORY CONCENTRATION MIC, Mouse Serum): > 64 µg/mL
- MIC (E. coli GC 2233; GC2233, read-out: MINIMAL INHIBITORY CONCENTRATION MIC, Water): > 64 µg/mL
- MIC (E. coli GC 6465; GC6465, read-out: MINIMAL INHIBITORY CONCENTRATION MIC, Human Serum): > 64 µg/mL
- MIC (E. coli GC 6465; GC6465, read-out: MINIMAL INHIBITORY CONCENTRATION MIC, Mouse Serum): > 64 µg/mL
- MIC (E. coli GC 6465; GC6465, read-out: MINIMAL INHIBITORY CONCENTRATION MIC, Water): > 64 µg/mL
- MIC (E. coli GC 3226; GC3226, read-out: MINIMAL INHIBITORY CONCENTRATION MIC, Human Serum): > 64 µg/mL
- MIC (E. coli GC 3226; GC3226, read-out: MINIMAL INHIBITORY CONCENTRATION MIC, Mouse Serum): > 64 µg/mL
- MIC (E. coli GC 3226; GC3226, read-out: MINIMAL INHIBITORY CONCENTRATION MIC, Water): > 64 µg/mL
- MIC (E. coli GC 1073; GC1073, read-out: MINIMAL INHIBITORY CONCENTRATION MIC, Human Serum): > 64 µg/mL
- MIC (E. coli GC 1073; GC1073, read-out: MINIMAL INHIBITORY CONCENTRATION MIC, Mouse Serum): > 64 µg/mL
- MIC (E. coli GC 1073; GC1073, read-out: MINIMAL INHIBITORY CONCENTRATION MIC, Water): > 64 µg/mL
- MIC (S. aureus GC 6469; GC6469, read-out: MINIMAL INHIBITORY CONCENTRATION MIC, Human Serum): 4 µg/mL (≈ 5.83 µM)
- MIC (S. aureus GC 6469; GC6469, read-out: MINIMAL INHIBITORY CONCENTRATION MIC, Mouse Serum): 2 µg/mL (≈ 2.92 µM)
- MIC (S. aureus GC 6469; GC6469, read-out: MINIMAL INHIBITORY CONCENTRATION MIC, Water): 4 µg/mL (≈ 5.83 µM)
- MIC (S. aureus GC 6335; GC6335, read-out: MINIMAL INHIBITORY CONCENTRATION MIC, Human Serum): 4 µg/mL (≈ 5.83 µM)
- MIC (S. aureus GC 6335; GC6335, read-out: MINIMAL INHIBITORY CONCENTRATION MIC, Mouse Serum): 4 µg/mL (≈ 5.83 µM)
- MIC (S. aureus GC 6335; GC6335, read-out: MINIMAL INHIBITORY CONCENTRATION MIC, Water): 4 µg/mL (≈ 5.83 µM)
- MIC (S. pyogenes GC 4563; GC4563, read-out: MINIMAL INHIBITORY CONCENTRATION MIC, Human Serum): 4 µg/mL (≈ 5.83 µM)
- MIC (S. pyogenes GC 4563; GC4563, read-out: MINIMAL INHIBITORY CONCENTRATION MIC, Mouse Serum): 4 µg/mL (≈ 5.83 µM)
- MIC (S. pyogenes GC 4563; GC4563, read-out: MINIMAL INHIBITORY CONCENTRATION MIC, Water): 4 µg/mL (≈ 5.83 µM)
- MIC (S. aureus GC 6467; GC6467, read-out: MINIMAL INHIBITORY CONCENTRATION MIC, Human Serum): 4 µg/mL (≈ 5.83 µM)
- MIC (S. aureus GC 6467; GC6467, read-out: MINIMAL INHIBITORY CONCENTRATION MIC, Mouse Serum): 2 µg/mL (≈ 2.92 µM)
- MIC (S. aureus GC 6467; GC6467, read-out: MINIMAL INHIBITORY CONCENTRATION MIC, Water): 4 µg/mL (≈ 5.83 µM)
- MIC (E. coli GC 4559; GC4559, read-out: MINIMAL INHIBITORY CONCENTRATION MIC, Human Serum): > 64 µg/mL
- MIC (E. coli GC 4559; GC4559, read-out: MINIMAL INHIBITORY CONCENTRATION MIC, Mouse Serum): > 64 µg/mL
- MIC (E. coli GC 4559; GC4559, read-out: MINIMAL INHIBITORY CONCENTRATION MIC, Water): > 64 µg/mL
- MIC (E. coli GC 2203; GC2203, read-out: MINIMAL INHIBITORY CONCENTRATION MIC, Human Serum): > 64 µg/mL
- MIC (E. coli GC 2203; GC2203, read-out: MINIMAL INHIBITORY CONCENTRATION MIC, Mouse Serum): > 64 µg/mL
- MIC (E. coli GC 2203; GC2203, read-out: MINIMAL INHIBITORY CONCENTRATION MIC, Water): > 64 µg/mL
- MIC (E. coli GC 2234; GC2234, read-out: MINIMAL INHIBITORY CONCENTRATION MIC, Human Serum): > 64 µg/mL
- MIC (E. coli GC 2234; GC2234, read-out: MINIMAL INHIBITORY CONCENTRATION MIC, Mouse Serum): > 64 µg/mL
- MIC (E. coli GC 2234; GC2234, read-out: MINIMAL INHIBITORY CONCENTRATION MIC, Water): > 64 µg/mL
- MIC (S. typhimurium GC 2172; read-out: MINIMAL INHIBITORY CONCENTRATION MIC, Human Serum): > 64 µg/mL
- MIC (S. typhimurium GC 2172; read-out: MINIMAL INHIBITORY CONCENTRATION MIC, Mouse Serum): > 64 µg/mL
- MIC (S. typhimurium GC 2172; read-out: MINIMAL INHIBITORY CONCENTRATION MIC, Water): > 64 µg/mL
